Read-outs that look alike come from different tables or passages of the source.
How the values were obtained:
[1] = tested on: MCF-7 human breast cancer cell line; experiment: Alamar Blue assay for antiproliferative effects; assay type: cell-based; conditions: Homo sapiens
[2] = tested on: peripheral blood mononuclear cells (PBMCs); experiment: Flow cytometry (propidium iodide) in PBMCs of healthy donors; assay type: cell-based, human; conditions: 10 µM, 72 h
Description: Next, the same cohort of compounds was tested on peripheral blood mononuclear cells (PBMCs) isolated from the blood of healthy donors. Cells were treated with 10 µM of each compound for 72 h and subjected to flow cytometry.
(§1) MCF-7 cells were seeded at a density of 5 × 10^4 cells/well in a 12-well plate and treated with the indicated compounds for 72 h. Samples were then centrifuged at 650× g for 5 min and resuspended in 100 µL ice-cold PBS. Ice-cold 70% (v/v) ethanol (1 mL) was then added to fix the samples overnight at 4 °C. Samples were subsequently centrifuged at 800× g for 10 min and resuspended in 200 µL PBS. RNase A (12.5 µL of 10 mg/mL) and propidium iodide (37.5 µL of 1 mg/ mL) were added to samples which were then incubated for 30 min at 37°C. Cell cycle analysis was performed at 488 nm using a FACS Calibur flow cytometer (Becton Dickinson, Franklin Lakes, NJ, USA). The Macintosh-based application CellQuest was then used to analyse the data of 10,000 gated cells once cell debris had been excluded. Data points represent the mean ± S.E.M. of three independent experiments.
Fresh peripheral blood was collected from healthy donors and diluted 1:3 with RPMI medium and added to half the equivalent volume of Lymphoprep. Samples were centrifuged at 750× g for 30 min to form a Ficoll gradient. The white buffy layer containing the peripheral blood mononuclear cells was removed, diluted to a volume of 50 mL with medium and centrifuged again for 10 min at 650× g. Cells were then seeded at a density of 1 × 10^6 cells in 1 mL of RPMI medium supplemented with 10% FBS, 2 mM L-glutamine and 100 U/mL penicillin and 100 µg/mL streptomycin.

MCF-7 cells = experiment: Flow cytometry (propidium iodide) cell cycle and apoptosis analysis in MCF-7; assay type: cell-based, human; conditions: for G2/M-arrest / apoptosis: MCF-7, 10 µM, 72 h; for apoptosis (in words): MCF-7, 72 h
Description: Flow cytometry with propidium iodide stained cells was carried out to analyse the percentage of cells in each stage of the cell cycle and the number of apoptotic or dead cells. Samples were treated for 72 h at 10 µM. […] […].
as §1

human ERα = biological target: T1, human ERα (Homo sapiens, UniProt P03372); experiment: Estrogen receptor fluorescence polarisation competitive binding assay, ERα; conditions: for Selectivity (α/β): ratio of RBA values ERα relative to ERβ; for ERα RBA: relative binding affinity, estradiol (5.7 nM) = 100%
T1 construct: purchased Invitrogen
T1 sequence (P03372 1-595): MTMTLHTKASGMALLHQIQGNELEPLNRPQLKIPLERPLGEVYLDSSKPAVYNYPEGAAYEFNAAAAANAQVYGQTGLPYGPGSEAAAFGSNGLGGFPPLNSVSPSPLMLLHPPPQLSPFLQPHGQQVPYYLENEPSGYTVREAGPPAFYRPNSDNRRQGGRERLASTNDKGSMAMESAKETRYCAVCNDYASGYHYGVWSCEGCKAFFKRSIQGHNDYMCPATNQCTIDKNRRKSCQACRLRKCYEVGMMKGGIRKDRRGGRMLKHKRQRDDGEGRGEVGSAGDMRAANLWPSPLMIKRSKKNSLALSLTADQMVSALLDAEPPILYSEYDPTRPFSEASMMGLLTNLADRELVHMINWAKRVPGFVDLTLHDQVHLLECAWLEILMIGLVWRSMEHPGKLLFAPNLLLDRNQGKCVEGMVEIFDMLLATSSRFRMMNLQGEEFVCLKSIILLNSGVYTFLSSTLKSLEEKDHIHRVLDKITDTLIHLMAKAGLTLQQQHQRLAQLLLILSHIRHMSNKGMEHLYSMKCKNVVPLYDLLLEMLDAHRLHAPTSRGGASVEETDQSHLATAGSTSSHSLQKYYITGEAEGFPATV

human ERβ = biological target: T2, human ERβ (Homo sapiens, UniProt Q92731); experiment: Estrogen receptor fluorescence polarisation competitive binding assay, ERβ
T2 construct: purchased Invitrogen
T2 sequence (Q92731 whole entry): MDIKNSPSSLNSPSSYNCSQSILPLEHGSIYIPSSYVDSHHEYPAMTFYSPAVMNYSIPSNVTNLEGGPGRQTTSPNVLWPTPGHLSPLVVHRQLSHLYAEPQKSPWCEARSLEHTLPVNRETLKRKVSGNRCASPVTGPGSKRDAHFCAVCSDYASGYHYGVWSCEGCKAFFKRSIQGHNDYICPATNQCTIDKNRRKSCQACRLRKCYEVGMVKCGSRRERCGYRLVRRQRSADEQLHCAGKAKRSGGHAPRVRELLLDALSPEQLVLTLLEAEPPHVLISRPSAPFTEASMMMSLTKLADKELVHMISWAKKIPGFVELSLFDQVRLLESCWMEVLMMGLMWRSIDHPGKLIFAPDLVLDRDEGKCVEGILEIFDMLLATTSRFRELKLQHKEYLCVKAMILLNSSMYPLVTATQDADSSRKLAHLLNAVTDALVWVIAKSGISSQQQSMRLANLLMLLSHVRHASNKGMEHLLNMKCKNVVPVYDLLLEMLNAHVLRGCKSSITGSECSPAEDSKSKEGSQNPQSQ

[3] = MCF7, 72 h, read-out: IC50 (μM), antiproliferative effects
[4] = competitive binding, fluorescence polarisation, read-out: ERα IC50
[5] = competitive binding, fluorescence polarisation, read-out: ERβ IC50
[6] = MCF7, 72 h, MCF-7, 72 h, Alamar Blue, read-out: IC50 (μM), antiproliferative effects

| Compound | IC50 [1, 3] [µM] | apoptosis / toxic effects in PBMCs (in words) [2] | G2/M-arrest (MCF-7 cells) [%] | apoptosis (MCF-7 cells) [%] | apoptosis (in words) (MCF-7 cells) | IC50 (human ERα; [4]) [nM] | increase in binding affinity compared to 4-hydroxytamoxifen (human ERα; in both ER isoforms) | Selectivity (α/β) (human ERα) | ERα RBA (human ERα) [%] | IC50 (human ERβ; [5]) [nM] | IC50 [1, 6] [µM] | IC50 ([1]; MCF7, read-out: IC50, antiproliferative activity) [µM] | IC50 (human ERα) [nM] | selectivity towards ERα over ERβ (human ERα; binding affinity preference) [fold] | IC50 (human ERβ) [nM] |
| --- | --- | --- | --- | --- | --- | --- | --- | --- | --- | --- | --- | --- | --- | --- | --- |
| COc1ccc(/C=C(/C(=O)N(C)CCOc2ccc(C(=C3CCCCCCC3)c3ccc(O)cc3)cc2)c2cc(OC)c(OC)c(OC)c2)cc1O [Compound 13d, (E)-N-(2-(4-(Cyclooctylidene(4-hydroxyphenyl)methyl)phenoxy)ethyl)-3-(3-hydroxy-4-methoxyphenyl)-N-methyl-2-(3,4,5-trimethoxyphenyl)acrylamide] | 0.346 | lack of toxicity | 27 | 36 | potently induce apoptosis | – | – | – | – | – | – | – | – | – | – |
| N-(2-{4-[1,2-Bis-(4-hydroxyphenyl)but-1-enyl]phenoxy}ethyl)-N-methylsuccinamic acid [Compound 14c] | – | – | – | – | – | 11.3 | approximately 3 fold | 0.60 | 50.44 | 6.7 | – | – | – | – | – |
| CNCCOc1ccc(C(=C2CCCCCC2)c2ccc(O)cc2)cc1 [Compound 11c, 4-(Cycloheptylidene(4-(2-(methylamino)ethoxy)phenyl)methyl)phenol] | – | induced apoptosis in PBMCs | – | 79.7 ± 5.2 | potently induce apoptosis | 1740 | – | 0.12 | 0.328 | 199 | 1.38 | – | – | – | – |
| CCC(=C(c1ccc(O)cc1)c1ccc(OCCN(C)C(=O)/C(=C/c2cc(OC)c(OC)c(OC)c2)c2ccc(OC)c(O)c2)cc1)c1ccccc1 (mixture of isomers) [Compound 3i, (E/Z)-2-(3-Hydroxy-4-methoxyphenyl)-N-(2-(4-((Z)-1-(4-hydroxyphenyl)-2-phenylbut-1-en-1-yl)phenoxy)-ethyl)-N-methyl-3-(3,4,5-trimethoxyphenyl)acrylamide] | – | lack of toxicity | – | – | potently induce apoptosis | 182 | – | 2.44 | 3.13 | 436 | 4.2 | – | – | – | – |
| CNCCOc1ccc(C(=C2CCC(C)CC2)c2ccc(O)cc2)cc1 (stereo not shown) [Compound 11e, 4-((4-(2-(Methylamino)ethoxy)phenyl)(4-methylcyclohexaneylidene)methyl)phenol] | – | induced apoptosis in PBMCs | – | 76 | potently induce apoptosis | 3160 | – | 0.02 | 0.180 | 67 | 1.77 | – | – | – | – |
| COc1ccc(/C=C(/C(=O)N(C)CCOc2ccc(C(=C3CCC(C)CC3)c3ccc(O)cc3)cc2)c2cc(OC)c(OC)c(OC)c2)cc1O (stereo not shown) [Compound 13e, (E)-3-(3-Hydroxy-4-methoxyphenyl)-N-(2-(4-((4-hydroxyphenyl)(4-methylcyclohexaneylidene)methyl)-phenoxy)ethyl)-N-methyl-2-(3,4,5-trimethoxyphenyl) acrylamide] | 0.182 | lack of toxicity | 18 | 48 | potently induce apoptosis | – | – | 12.3 | 30 | – | – | 0.187 | 19 | 12 | 229 |
| CNCCOc1ccc(C(=C2CCCCCCC2)c2ccc(O)cc2)cc1 [Compound 11d, 4-(Cyclooctylidene(4-(2-(methylamino)ethoxy)phenyl)methyl)phenol] | – | – | – | – | – | 170 | – | 0.67 | 3.35 | 112 | 3.23 | – | – | – | – |

Source: PMC6151695, “Novel Selective Estrogen Receptor Ligand Conjugates Incorporating Endoxifen-Combretastatin and Cyclofenil-Combretastatin Hybrid Scaffolds: Synthesis and Biochemical Evaluation” (Molecules : A Journal of Synthetic Chemistry and Natural …, 2017)
